Assay results: US20220009920A1 (GB005, Inc., priority 2020, published 2022)

Tests used:
Assay in all cases: Large panel kinase profiling
Type in all cases: biochemical
Details in all cases: 1 μM test article, 1 mM ATP
[1] = target: MAP3K14 (Homo sapiens, UniProt Q99558)
Method in brief: (§1)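 Kinase activity was followed with the PhosphoSens CSox-Sensor platform, testing compound at 1 μM in the presence of 1 mM ATP. Reactions ran at 30° C. and fluorescence (Ex 360 nm/Em 485 nm) was read kinetically every 1 min.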

[2] = target: T1, MYLK4 (Homo sapiens, UniProt Q86YV6)
T1 construct: AssayQuant Technologies, Inc. (assay service)
T1 sequence (Q86YV6 1-388): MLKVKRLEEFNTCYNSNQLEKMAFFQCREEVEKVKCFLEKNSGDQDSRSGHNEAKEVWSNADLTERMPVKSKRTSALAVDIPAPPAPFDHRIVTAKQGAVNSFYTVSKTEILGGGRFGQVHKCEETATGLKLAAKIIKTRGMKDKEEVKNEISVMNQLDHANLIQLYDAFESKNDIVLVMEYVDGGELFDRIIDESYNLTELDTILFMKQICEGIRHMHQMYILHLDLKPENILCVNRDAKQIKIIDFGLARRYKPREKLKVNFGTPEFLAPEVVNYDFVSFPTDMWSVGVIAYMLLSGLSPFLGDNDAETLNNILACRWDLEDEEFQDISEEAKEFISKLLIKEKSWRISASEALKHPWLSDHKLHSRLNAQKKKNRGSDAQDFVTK
Method in brief: as §1

[3] = target: ROS (Homo sapiens, UniProt P08922)
Method in brief: as §1

[4] = target: T2, AXL (Homo sapiens, UniProt P30530)
T2 sequence (P30530 26-894): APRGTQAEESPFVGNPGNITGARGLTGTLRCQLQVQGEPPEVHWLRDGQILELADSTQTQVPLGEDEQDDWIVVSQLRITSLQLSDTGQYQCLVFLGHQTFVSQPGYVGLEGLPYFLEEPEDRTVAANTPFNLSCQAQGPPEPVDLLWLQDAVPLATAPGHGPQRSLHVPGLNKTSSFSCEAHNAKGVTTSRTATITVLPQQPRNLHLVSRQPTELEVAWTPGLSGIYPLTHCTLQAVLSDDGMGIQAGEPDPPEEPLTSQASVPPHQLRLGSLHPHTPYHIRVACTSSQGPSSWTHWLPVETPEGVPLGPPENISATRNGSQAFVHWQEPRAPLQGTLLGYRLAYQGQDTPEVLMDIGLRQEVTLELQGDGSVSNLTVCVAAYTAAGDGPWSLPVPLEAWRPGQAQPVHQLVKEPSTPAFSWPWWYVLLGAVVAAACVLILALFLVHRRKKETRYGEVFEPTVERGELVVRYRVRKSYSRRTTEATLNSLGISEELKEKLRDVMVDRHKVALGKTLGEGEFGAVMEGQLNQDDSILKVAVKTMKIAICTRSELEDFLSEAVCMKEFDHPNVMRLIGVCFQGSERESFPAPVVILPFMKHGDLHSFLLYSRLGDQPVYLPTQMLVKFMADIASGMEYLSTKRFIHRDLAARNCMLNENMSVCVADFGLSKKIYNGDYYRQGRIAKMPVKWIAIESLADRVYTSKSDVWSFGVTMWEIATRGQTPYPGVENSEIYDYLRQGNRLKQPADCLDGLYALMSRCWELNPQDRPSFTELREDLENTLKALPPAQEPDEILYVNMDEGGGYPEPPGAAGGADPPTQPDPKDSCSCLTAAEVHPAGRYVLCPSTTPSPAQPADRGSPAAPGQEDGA
Method in brief: as §1

[5] = target: T3, MAPK3/ERK1 (Homo sapiens, UniProt P27361)
T3 construct: AssayQuant Technologies, Inc. (service provider)
Method in brief: as §1

[6] = target: T4, CLK4 (Homo sapiens, UniProt Q9HAZ1)
T4 construct: AssayQuant Technologies, Inc. (service laboratory)
Method in brief: as §1

[7] = target: T5, ZAP70 (Homo sapiens, UniProt P43403)
T5 construct: AssayQuant Technologies, Inc. (contract laboratory that ran the panel)
T5 sequence (P43403 1-619): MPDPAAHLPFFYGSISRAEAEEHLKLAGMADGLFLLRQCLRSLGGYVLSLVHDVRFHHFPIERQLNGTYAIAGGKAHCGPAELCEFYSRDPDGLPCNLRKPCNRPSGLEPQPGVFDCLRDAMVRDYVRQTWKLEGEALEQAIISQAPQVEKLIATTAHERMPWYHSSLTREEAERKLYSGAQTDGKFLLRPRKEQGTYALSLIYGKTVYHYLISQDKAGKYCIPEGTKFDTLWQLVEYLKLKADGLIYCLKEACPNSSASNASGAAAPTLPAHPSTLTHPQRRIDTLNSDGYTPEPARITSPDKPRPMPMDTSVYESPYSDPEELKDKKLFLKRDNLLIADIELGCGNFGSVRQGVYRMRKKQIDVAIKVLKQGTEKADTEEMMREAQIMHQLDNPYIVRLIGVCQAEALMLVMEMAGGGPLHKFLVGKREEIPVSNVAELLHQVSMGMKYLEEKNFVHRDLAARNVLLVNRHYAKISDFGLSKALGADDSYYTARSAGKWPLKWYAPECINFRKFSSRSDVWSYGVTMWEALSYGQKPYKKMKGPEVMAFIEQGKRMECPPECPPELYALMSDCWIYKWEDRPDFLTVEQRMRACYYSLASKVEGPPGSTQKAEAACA
Method in brief: as §1

T3 sequence (P27361 whole entry): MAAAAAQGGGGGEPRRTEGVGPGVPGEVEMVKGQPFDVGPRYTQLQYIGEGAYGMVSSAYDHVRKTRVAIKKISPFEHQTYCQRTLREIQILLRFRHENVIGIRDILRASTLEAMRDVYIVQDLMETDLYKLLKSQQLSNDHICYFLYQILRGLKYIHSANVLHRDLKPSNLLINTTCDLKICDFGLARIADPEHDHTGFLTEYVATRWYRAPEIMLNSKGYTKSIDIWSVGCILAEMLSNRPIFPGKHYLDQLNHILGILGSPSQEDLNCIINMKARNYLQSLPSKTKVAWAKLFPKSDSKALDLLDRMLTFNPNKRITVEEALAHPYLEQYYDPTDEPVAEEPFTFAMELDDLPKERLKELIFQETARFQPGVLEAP
T4 sequence (Q9HAZ1 whole entry, species assumed): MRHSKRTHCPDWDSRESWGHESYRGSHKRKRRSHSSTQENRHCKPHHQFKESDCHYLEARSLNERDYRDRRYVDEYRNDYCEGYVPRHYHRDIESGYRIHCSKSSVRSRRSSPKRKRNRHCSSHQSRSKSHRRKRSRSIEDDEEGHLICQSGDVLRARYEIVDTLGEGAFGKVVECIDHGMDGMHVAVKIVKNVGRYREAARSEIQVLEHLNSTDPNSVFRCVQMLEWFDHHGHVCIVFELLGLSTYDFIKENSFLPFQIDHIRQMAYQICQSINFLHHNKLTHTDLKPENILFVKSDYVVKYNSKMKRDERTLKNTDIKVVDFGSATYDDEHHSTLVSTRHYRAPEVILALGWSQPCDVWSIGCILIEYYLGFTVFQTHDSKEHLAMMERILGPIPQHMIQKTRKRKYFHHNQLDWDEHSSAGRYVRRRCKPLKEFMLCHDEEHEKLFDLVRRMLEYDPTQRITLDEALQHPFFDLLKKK
Sequence of ROS (P08922 28-2347, species assumed): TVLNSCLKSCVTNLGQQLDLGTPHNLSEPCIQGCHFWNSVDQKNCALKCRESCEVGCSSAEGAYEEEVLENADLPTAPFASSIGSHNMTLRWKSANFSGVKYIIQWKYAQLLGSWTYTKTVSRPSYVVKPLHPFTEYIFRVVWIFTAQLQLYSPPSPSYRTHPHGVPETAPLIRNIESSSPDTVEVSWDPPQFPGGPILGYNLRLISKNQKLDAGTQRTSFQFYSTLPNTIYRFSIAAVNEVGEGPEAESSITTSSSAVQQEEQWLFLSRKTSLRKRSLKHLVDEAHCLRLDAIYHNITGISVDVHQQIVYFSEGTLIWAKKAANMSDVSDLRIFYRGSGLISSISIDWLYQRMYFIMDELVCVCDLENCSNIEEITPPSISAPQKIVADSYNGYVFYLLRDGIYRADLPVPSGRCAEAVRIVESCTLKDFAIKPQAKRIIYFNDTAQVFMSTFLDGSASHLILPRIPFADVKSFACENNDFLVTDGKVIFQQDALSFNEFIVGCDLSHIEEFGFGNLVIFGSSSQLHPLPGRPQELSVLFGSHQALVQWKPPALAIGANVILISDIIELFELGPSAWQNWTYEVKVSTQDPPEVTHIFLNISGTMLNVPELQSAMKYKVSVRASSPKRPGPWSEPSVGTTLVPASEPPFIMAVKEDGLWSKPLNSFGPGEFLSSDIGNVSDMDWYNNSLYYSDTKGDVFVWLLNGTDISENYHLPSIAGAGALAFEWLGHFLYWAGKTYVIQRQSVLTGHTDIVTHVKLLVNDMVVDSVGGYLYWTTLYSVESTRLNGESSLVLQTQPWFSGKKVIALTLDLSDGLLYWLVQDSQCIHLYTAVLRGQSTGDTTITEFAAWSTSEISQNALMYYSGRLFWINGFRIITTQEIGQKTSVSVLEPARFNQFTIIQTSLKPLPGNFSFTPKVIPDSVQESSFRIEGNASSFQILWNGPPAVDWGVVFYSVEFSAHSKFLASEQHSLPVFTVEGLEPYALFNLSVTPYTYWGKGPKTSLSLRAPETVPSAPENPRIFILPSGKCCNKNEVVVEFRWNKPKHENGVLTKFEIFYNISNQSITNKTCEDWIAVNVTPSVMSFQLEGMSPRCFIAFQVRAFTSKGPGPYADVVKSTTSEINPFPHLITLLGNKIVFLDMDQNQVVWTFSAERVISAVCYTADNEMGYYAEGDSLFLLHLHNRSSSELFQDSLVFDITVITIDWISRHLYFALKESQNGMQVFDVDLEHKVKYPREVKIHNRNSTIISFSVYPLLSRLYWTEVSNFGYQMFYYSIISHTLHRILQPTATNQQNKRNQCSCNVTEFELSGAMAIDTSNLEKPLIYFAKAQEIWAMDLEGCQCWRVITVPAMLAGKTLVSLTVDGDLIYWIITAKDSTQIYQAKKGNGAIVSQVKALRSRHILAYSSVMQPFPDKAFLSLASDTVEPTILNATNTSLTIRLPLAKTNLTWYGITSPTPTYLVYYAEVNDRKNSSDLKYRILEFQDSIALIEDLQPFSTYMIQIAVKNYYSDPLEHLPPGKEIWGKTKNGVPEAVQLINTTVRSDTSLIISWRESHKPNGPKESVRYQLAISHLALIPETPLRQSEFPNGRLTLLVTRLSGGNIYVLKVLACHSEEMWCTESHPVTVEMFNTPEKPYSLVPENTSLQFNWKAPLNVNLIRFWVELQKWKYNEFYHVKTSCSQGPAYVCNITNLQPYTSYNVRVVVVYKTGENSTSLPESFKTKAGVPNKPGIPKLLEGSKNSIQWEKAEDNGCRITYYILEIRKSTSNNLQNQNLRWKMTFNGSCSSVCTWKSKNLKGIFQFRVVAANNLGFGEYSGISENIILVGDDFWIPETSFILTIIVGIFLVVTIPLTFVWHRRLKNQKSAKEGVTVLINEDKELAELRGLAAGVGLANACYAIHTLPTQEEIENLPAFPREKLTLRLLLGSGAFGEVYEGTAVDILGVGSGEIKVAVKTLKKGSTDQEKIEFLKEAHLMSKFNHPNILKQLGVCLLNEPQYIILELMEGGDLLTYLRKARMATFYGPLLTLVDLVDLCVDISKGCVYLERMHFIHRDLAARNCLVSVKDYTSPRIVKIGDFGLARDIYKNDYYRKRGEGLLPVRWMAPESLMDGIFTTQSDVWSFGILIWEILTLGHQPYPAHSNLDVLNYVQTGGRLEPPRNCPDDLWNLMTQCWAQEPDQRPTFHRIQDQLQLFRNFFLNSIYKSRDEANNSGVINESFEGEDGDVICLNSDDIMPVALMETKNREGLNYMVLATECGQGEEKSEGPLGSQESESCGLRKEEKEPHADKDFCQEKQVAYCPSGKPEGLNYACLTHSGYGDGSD
Sequence of MAP3K14 (Q99558 whole entry, species assumed): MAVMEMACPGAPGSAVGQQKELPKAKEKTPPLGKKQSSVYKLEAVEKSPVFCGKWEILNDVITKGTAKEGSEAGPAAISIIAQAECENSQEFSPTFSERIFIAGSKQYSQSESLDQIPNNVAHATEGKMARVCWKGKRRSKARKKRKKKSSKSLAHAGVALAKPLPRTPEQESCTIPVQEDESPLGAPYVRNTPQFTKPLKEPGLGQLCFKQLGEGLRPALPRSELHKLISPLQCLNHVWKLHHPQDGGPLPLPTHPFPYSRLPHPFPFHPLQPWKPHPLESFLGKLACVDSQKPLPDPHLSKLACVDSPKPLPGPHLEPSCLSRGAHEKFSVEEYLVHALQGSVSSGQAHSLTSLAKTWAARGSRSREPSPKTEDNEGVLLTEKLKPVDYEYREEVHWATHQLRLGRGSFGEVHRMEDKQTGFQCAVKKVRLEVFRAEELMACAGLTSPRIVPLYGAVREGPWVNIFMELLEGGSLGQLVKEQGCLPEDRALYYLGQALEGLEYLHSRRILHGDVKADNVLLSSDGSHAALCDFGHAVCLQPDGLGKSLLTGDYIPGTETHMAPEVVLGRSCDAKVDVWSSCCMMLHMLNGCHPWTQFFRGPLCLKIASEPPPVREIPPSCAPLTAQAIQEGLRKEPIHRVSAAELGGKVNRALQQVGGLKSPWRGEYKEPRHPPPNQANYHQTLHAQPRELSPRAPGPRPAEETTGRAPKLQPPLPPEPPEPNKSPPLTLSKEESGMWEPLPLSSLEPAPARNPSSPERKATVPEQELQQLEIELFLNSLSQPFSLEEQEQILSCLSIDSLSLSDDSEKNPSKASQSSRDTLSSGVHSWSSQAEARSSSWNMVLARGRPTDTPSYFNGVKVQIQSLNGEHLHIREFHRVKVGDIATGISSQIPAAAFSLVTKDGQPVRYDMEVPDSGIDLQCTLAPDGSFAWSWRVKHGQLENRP

| SMILES | inhibition at 1 µM [1] [%] | inhibition at 1 µM [2] [%] | inhibition at 1 µM [3] [%] | inhibition at 1 µM [4] [%] | inhibition at 1 µM [5] [%] | inhibition at 1 µM [6] [%] | inhibition at 1 µM [7] [%] |
| --- | --- | --- | --- | --- | --- | --- | --- |
| C=CC(=O)N1CCCC(c2c(F)cc(C(N)=O)c3[nH]c4c(c23)CCCCC4)C1 (single isomer, unassigned) [Compound 5-6] | 10.5 | 29.7 | -35.7 | -20.3 | -22.1 | 12.3 | -22.5 |
| C=CC(=O)N1CCC[C@@H](c2c(F)cc(C(N)=O)c3[nH]c4c(c23)CCC4)C1 [Compound 10-2, (S)-8-(1-acryloylpiperidin-3-yl)-7-fluoro-1,2,3,4-tetrahydrocyclo-penta[b]indole-5-carboxamide] | -0.2 | -21.1 | -22 | -1.7 | 5.5 | 2.7 | -9.5 |
| C=CC(=O)N1CCC[C@@H](c2c(F)cc(C(N)=O)c3[nH]c4c(c23)CC2(CC4)CC2)C1 [Compound 6-2, (S)-5-(1-acryloylpiperidin-3-yl)-6-fluoro-1,2,4,9-tetrahydrospiro[carbazole-3,1′-cyclopropane]-8-carboxamide] | -11.5 | -30.5 | -3.6 | 1.5 | 22.7 | 6.5 | 1.7 |
